Here are results for 17 molecules from patent publication US20230019491A1, “PYRIMIDINE TBK/IKKe INHIBITOR COMPOUNDS AND USES THEREOF” (Merck Patent GmbH, priority 2017, published 2023).

SMILES strings stand for the structures.

Assay [1] deals with T1, TBK1 (Homo sapiens, UniProt Q9UHD2).
T1 sequence (Q9UHD2 1-729): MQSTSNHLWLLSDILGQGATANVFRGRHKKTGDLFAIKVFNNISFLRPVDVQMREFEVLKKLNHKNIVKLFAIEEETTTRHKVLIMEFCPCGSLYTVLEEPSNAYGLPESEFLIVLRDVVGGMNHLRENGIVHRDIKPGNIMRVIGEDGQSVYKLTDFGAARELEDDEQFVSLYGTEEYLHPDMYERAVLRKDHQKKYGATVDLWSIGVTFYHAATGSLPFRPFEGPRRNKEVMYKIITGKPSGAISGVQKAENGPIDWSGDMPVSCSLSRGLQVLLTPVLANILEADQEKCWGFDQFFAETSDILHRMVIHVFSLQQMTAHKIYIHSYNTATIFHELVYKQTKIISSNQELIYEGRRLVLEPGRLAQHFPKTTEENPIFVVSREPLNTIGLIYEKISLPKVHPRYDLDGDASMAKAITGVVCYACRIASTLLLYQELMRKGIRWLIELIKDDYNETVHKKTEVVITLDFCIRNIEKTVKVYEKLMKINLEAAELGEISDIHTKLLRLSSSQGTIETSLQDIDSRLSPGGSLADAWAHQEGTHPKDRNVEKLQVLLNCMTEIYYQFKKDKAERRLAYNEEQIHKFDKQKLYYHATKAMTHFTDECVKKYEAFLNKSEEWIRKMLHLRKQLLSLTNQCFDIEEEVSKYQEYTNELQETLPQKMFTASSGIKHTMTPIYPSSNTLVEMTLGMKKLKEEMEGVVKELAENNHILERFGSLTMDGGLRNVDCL
Put plainly: TBK biochemical assay. Particulars: 10 point 1:4 dose response, 30 uM top concentration, 90 min at 25° C., LabChip EZ Reader II; read-out: TBK1_IC50. An outline of the steps: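 Substrate and product were separated and quantified by microfluidic mobility-shift read (LabChip). 10 uM staurosporine served as the full-inhibition control, and the reference compound was tested from 1 uM final.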

Assay [2] concerns the target T2, IKKε (Homo sapiens, UniProt Q14164).
T2 sequence (Q14164 1-716): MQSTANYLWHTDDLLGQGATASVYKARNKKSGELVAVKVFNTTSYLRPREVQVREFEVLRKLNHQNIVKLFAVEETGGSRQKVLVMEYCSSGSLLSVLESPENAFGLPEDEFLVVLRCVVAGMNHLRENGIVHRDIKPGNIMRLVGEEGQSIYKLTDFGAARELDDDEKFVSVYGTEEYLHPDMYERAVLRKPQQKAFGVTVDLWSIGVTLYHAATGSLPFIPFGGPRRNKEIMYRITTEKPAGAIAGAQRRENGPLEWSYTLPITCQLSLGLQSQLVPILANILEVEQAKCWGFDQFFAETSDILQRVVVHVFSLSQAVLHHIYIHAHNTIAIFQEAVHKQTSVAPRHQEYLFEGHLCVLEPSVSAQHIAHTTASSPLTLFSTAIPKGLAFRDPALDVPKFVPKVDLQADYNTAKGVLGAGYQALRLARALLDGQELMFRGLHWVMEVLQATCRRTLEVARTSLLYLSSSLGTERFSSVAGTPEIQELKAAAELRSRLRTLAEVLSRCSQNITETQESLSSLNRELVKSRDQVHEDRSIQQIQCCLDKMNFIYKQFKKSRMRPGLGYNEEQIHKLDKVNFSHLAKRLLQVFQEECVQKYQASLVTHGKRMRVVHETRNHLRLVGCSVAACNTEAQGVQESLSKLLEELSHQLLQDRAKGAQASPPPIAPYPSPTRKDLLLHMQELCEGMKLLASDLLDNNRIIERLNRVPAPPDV
Put plainly: IKKε biochemical assay. Particulars: 10 point 1:4 dose response, 30 uM top concentration, 90 min at 25° C., LabChip EZ Reader II; read-out: IKKε_IC50. An outline of the steps:
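Compounds in 1% DMSO final were incubated with IKKε enzyme and substrate at 25° C. for 90 min, then stopped. Substrate and product peaks were resolved by LabChip EZ Reader II mobility-shift read-out. Staurosporine at 10 uM final served as the full-inhibition control.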

For `COc1cc(Nc2nccc(-c3ccc(OC4CCN(C(=O)[C@H](C)O)CC4(F)F)c(C#N)c3)n2)cnc1N1CCN(C2COC2)CC1` (stereo partly drawn) [Example 323, 2-([3,3-difluoro-1-[(2S)-2-hydroxypropanoyl]piperidin-4-yl]oxy)-5-[2-([5-methoxy-6-[4-(oxetan-3-yl)piperazin-1-yl]pyridin-3-yl]amino)pyrimidin-4-yl]benzonitrile], the IC50 in assay [1] and in assay [2] was below 100 nM each time.
With `N#Cc1cc(-c2ccnc(Nc3cccc(C4CCN(C5COC5)CC4)c3)n2)ccc1OC1CCNCC1(F)F` (stereo not shown) [Example 222, 2-(3,3-Difluoro-piperidin-4-yloxy)-5-{2-[3-(1-oxetan-3-yl-piperidin-4-yl)-phenylamino]-pyrimidin-4-yl}-benzonitrile], the IC50 in assay [1] and in assay [2] was below 100 nM each time.
Regarding `COc1nc(Nc2nccc(-c3ccc(O[C@@H]4CCN(C(=O)CO)CC4(F)F)c(C#N)c3)n2)ccc1N1CCN(C)CC1` [Example 101, 2-[[(4R)-3,3-difluoro-1-(2-hydroxyacetyl)piperidin-4-yl]oxy]-5-(2-[[6-methoxy-5-(4-methylpiperazin-1-yl)pyridin-2-yl]amino]pyrimidin-4-yl)benzonitrile], the IC50 in assay [1] and in assay [2] was below 100 nM throughout.
Regarding `COc1nc(Nc2nccc(-c3ccc(OC4CCN(C(=O)[C@@H](O)CO)CC4(F)F)c(C#N)c3)n2)ccc1N1CCN(C2COC2)[C@H](C)C1` (stereo partly drawn) [Example 262, 2-[1-((S)-2,3-Dihydroxy-propionyl)-3,3-difluoro-piperidin-4-yloxy]-5-{2-[6-methoxy-5-((R)-3-methyl-4-oxetan-3-yl-piperazin-1-yl)-pyridin-2-ylamino]-pyrimidin-4-yl}-benzonitrile], the IC50 in assay [1] and in assay [2] was below 100 nM throughout.
`COc1nc(Nc2nccc(-c3ccc(OC4CCOCC4)c(C#N)c3)n2)ccc1C(=O)N1C2CCCC1COC2` [Example 16, 5-(2-[[6-methoxy-5-([3-oxa-9-azabicyclo[3.3.1]nonan-9-yl]carbonyl)pyridin-2-yl]amino]pyrimidin-4-yl)-2-(oxan-4-yloxy)benzonitrile]: the IC50 in assay [1] and in assay [2] was below 100 nM throughout.
For the molecule `COc1nc(Nc2nccc(-c3ccc(OC4CCNCC4(F)F)c(C#N)c3)n2)ccc1C1CCN(C)CC1` (stereo not shown) [Example 144, 2-(3,3-Difluoro-piperidin-4-yloxy)-5-[2-(2-methoxy-1′-methyl-1′,2′,3′,4′,5′,6′-hexahydro-[3,4′]bipyridinyl-6-ylamino)-pyrimidin-4-yl]-benzonitrile], the IC50 in assay [1] and in assay [2] was below 100 nM throughout.
Consider `COc1nc(Nc2nccc(-c3ccc(OC4(C)CCN(C(=O)[C@@H](O)CO)CC4)c(C#N)c3)n2)ccc1N1CCN(C2COC2)CC1` [Example 269, 2-[1-((S)-2,3-Dihydroxy-propionyl)-4-methyl-piperidin-4-yloxy]-5-{2-[6-methoxy-5-(4-oxetan-3-yl-piperazin-1-yl)-pyridin-2-ylamino]-pyrimidin-4-yl}-benzonitrile], for which the IC50 in assay [1] and in assay [2] was below 100 nM throughout.
On to `COc1nc(Nc2nccc(-c3ccc(OC4(C)CCNCC4)c(C#N)c3)n2)ccc1N1CCN(C2COC2)CC1` [Example 267, 5-{2-[6-Methoxy-5-(4-oxetan-3-yl-piperazin-1-yl)-pyridin-2-ylamino]-pyrimidin-4-yl}-2-(4-methyl-piperidin-4-yloxy)-benzonitrile], for which the IC50 in assay [1] and in assay [2] was below 100 nM in each case.
For `COc1nc(Nc2nccc(-c3ccc(OC4CCN(C(=O)[C@H](C)O)C4)c(C#N)c3)n2)ccc1N1CCN(C2COC2)CC1` (stereo partly drawn) [Example 183, 2-([1-[(2S)-2-hydroxypropanoyl]pyrrolidin-3-yl]oxy)-5-[2-([6-methoxy-5-[4-(oxetan-3-yl)piperazin-1-yl]pyridin-2-yl]amino)pyrimidin-4-yl]benzonitrile], the IC50 in assay [1] and in assay [2] was below 100 nM throughout.
In the case of `COc1nc(Nc2nccc(-c3ccc(OC4CCN(C(=O)[C@H](C)O)C(C)C4)c(C#N)c3)n2)ccc1N1CCN(C2COC2)CC1` (stereo partly drawn) [Example 266, 2-[1-((S)-2-Hydroxy-propionyl)-2-methyl-piperidin-4-yloxy]-5-{2-[6-methoxy-5-(4-oxetan-3-yl-piperazin-1-yl)-pyridin-2-ylamino]-pyrimidin-4-yl}-benzonitrile], the IC50 in assay [1] and in assay [2] was below 100 nM each time.
As for `COc1nc(Nc2nccc(-c3ccc(OC4CCOC4)c(C#N)c3)n2)ccc1N1CCN(C2COC2)CC1` (stereo not shown) [Example 162, 5-[2-([6-methoxy-5-[4-(oxetan-3-yl)piperazin-1-yl]pyridin-2-yl]amino)pyrimidin-4-yl]-2-(oxolan-3-yloxy)benzonitrile], the IC50 in assay [1] and in assay [2] was below 100 nM in each case.
Turning to `CN1CCN(c2ccc(Nc3nccc(-c4ccc(OC5CCOCC5)c(C#N)c4)n3)cn2)CC1` [Example 66, 5-{2-[6-(4-Methyl-piperazin-1-yl)-pyridin-3-ylamino]-pyrimidin-4-yl}-2-(tetrahydro-pyran-4-yloxy)-benzonitrile], the IC50 in assay [1] and in assay [2] was below 100 nM each time.
`COc1nc(Nc2nccc(-c3ccc(OC4CCN(C(=O)C(C)(C)O)CC4(F)F)c(C#N)c3)n2)ccc1N1CCN(C)C[C@H]1C` (stereo partly drawn) [Example 114, 2-[3,3-Difluoro-1-(2-hydroxy-2-methyl-propionyl)-piperidin-4-yloxy]-5-{2-[5-((R)-2,4-dimethyl-piperazin-1-yl)-6-methoxy-pyridin-2-ylamino]-pyrimidin-4-yl}-benzonitrile]: the IC50 in assay [1] and in assay [2] was below 100 nM in each case.
For the molecule `N#Cc1cc(-c2ccnc(Nc3ccccc3)n2)ccc1OC1CCN(C(=O)[C@@H](O)CO)CC1(F)F` (stereo partly drawn) [Example 210, 2-[1-((S)-2,3-Dihydroxy-propionyl)-3,3-difluoro-piperidin-4-yloxy]-5-(2-phenylamino-pyrimidin-4-yl)-benzonitrile], the IC50 in assay [1] and in assay [2] was below 100 nM in each case.
Turning to `COc1nc(Nc2nccc(-c3ccc(OC4CCN(C(=O)C5(O)CC5)CC4(F)F)c(C#N)c3)n2)ccc1C1CCN(C2COC2)CC1` (stereo not shown) [Example 237, 2-[3,3-Difluoro-1-(1-hydroxy-cyclopropanecarbonyl)-piperidin-4-yloxy]-5-[2-(2-methoxy-1′-oxetan-3-yl-1′,2′,3′,4′,5′,6′-hexahydro-[3,4′]bipyridinyl-6-ylamino)-pyrimidin-4-yl]-benzonitrile], the IC50 in assay [1] and in assay [2] was below 100 nM in each case.
On to `COc1nc(Nc2nccc(-c3ccc(OC4CCOCC4)c(C#N)n3)n2)ccc1C(=O)N1CCN(C)CC1` [Example 31, 6-[2-([6-methoxy-5-[(4-methylpiperazin-1-yl)carbonyl]pyridin-2-yl]amino)pyrimidin-4-yl]-3-(oxan-4-yloxy)pyridine-2-carbonitrile], for which the IC50 in assay [1] and in assay [2] was below 100 nM each time.
As to `COc1nc(Nc2nccc(-c3ccc(OC4CCOCC4)c(C#N)c3)n2)ccc1C(=O)N[C@@H]1[C@@H]2C[C@H]1CN(C)C2` [Example 20, 6-([4-[3-cyano-4-(oxan-4-yloxy)phenyl]pyrimidin-2-yl]amino)-2-methoxy-N-[(1R,5S,6S)-3-methyl-3-azabicyclo[3.1.1]heptan-6-yl]pyridine-3-carboxamide], the IC50 in assay [1] and in assay [2] was below 100 nM each time.
